Series [1] concerns human hepatocytes. Description: Hepatocyte stability. It is filed as in vitro ADME. Conditions: well-stirred model. As to the method: MS/MS. Natural logarithm of peak area ratios (compound peak area normalized by IS peak area) were plotted against time and half-life calculated. […]
placed into the sample chamber (indicated by the red ring) with 400 µL of PBS into the adjacent chamber.
The plate was sealed with a self-adhesive lid and incubated at 37 °C on an orbital shaker (1.5 g approx.) for 4 h. Aliquots (100 µL) were removed from each side of the insert, and analyzed after protein precipitation using 4 folds acetonitrile (ACN) containing berberine chloride as internal standard (IS) by LC-MS/MS (Analytical me thod seen below). The experimental procedure outlined in the Thermo Scientific RED device systems brochure was adopted in the present study . The several positive controls […]
In vitro stability in liver microsomes and hepatocytes
Half-life (t1/2) of SLM or SLOH in liver microsomes was determined in duplicate. In phase I reaction, […]
buffer (pH 7.4) including 81 mM Na2HPO4 and 19 mM NaH2PO4 ) at 37 °C, the reaction mixture was prewarmed at 37 °C for 2 minutes before adding NADPH (1.0 mM). In phase II reaction, the compound […]
5 mM MgCl2, 10 μg/mL alamethicin, and 2% (w/v) BSA. […]
reactions were initiated with the addition of UDPGA (5.0 mM). […]

Series [2] addresses T1, OATP1A2 (Homo sapiens, UniProt P46721).
T1 sequence (P46721 1-670): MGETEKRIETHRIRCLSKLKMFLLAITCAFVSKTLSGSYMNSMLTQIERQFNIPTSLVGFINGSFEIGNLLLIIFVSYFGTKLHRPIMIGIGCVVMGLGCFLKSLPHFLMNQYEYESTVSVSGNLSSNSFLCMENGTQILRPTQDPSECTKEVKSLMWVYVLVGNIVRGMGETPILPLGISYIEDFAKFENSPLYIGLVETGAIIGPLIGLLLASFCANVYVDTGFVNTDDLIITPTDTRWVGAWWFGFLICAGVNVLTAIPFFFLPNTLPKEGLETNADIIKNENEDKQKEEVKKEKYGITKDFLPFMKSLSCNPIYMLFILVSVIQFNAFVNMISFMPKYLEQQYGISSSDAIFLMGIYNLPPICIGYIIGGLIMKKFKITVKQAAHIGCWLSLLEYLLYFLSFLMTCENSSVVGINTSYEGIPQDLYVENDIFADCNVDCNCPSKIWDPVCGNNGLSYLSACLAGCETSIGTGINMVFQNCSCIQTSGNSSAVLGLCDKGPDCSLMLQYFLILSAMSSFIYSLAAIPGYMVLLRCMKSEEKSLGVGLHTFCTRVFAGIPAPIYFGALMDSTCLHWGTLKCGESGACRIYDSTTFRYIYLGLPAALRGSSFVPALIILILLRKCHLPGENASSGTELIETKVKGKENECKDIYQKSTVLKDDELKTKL
Put plainly: OATP substrate identification, uptake in stably transfected HEK293 cells. The note with it: 1 and 10 μM, 10 mins. As to the method:
(§1) Daily changes of medium were performed and on the second day after seeding using medium containing 10 mM sodium butyrate.
(§2) Stably transfected HEK cells and control vector-transfected HEK293 cells were first washed (3 × 1 mL) with prewarmed HBSS (pH 7.4) and then were incubated with 250 μL of HBSS containing compounds at concentrations of 1 and 10 μM. Cells were incubated for 10 mins at 37 °C for all experiments. After incubation, uptake was stopped by aspirating the incubation solution and washing each well 3 times with 200 μL of ice-old HBSS. The cells were lysed in 150 μL of 1 M NaOH for 30 mins, and then neutralized by adding equal volumes of 1 M HCl.
(§3) The following equations (3 and 4) were used to calculate the uptake rates (U, pmol/mg/min) and the OATP1B1, OATP1B3, OATP2B1 and OATP1A2 uptake ratio (UR):3 U=Clysate/P×T 4 UR=UOATP1B1/1B3/2B1/1A2/UHEK293−MOCK where C lysate is the compound concentration in cell lysates. P is the protein concentration in cell lysates. T is the incubation time. U OATP1B1/1B3/2B1/1A2 is the uptake rate obtained in HEK293 stably transfected OATP1B1, OATP1B3, OATP2B1 or OATP1A2 transportation. U HEK293-MOCK is the uptake rate obtained in control vector-transfected HEK293 transportation.

The target in series [3] is T2, OATP2B1 (Homo sapiens, UniProt O94956).
T2 sequence (O94956 1-709): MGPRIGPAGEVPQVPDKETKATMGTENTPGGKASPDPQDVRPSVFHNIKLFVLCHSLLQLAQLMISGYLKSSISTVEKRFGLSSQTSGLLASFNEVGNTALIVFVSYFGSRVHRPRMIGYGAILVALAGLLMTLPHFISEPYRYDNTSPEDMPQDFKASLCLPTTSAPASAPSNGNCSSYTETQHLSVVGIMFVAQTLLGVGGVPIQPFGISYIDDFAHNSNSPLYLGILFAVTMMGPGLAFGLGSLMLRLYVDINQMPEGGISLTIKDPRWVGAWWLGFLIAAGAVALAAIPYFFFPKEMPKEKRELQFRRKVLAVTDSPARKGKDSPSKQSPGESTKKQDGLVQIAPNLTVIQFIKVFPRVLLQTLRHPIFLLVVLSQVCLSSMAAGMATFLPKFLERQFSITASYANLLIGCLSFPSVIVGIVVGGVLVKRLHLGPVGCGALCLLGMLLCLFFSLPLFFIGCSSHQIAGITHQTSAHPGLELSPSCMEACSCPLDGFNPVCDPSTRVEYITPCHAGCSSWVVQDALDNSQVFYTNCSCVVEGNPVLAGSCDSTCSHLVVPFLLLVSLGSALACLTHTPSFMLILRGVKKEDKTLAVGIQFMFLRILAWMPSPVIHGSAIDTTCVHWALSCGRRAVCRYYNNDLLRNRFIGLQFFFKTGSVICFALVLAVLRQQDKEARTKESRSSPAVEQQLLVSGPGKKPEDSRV
The description is as above. The note with it: for uptake in cells transfected with OATP2B1 versus WT cells: 1 and 10 μM, 10 mins. The protocol: as §1, §2, §3

A short description of series [4]: Brain distribution by brain slices experiment. It is filed as in vitro ADME, mouse. Conditions: mouse. The protocol: The unbound volume of distribution in the brain (V u, brain) was determined in fresh brain slices using the protocol published by Friden et al.[25].

On to `COCCOCCn1c2ccccc2c2cc(/C=C/c3cc[n+](C)c4ccccc34)ccc21.[I-]` [SLM, (E)-4-(2-(9-(2-(2-methoxyethoxy)ethyl)-9H-carbazol-3-yl)-vinyl)-1-methyl-quinolin-1-iumiodide], for which the “Hepatocyte scaled Cl hep” value in series [1] stood at 0.833 ± 0.167 mL/min/kg. Also, the “uptake by OATP1A2 transfected HEK293 versus WT cells” value in series [2] is on record as “no significant differences”. Also, in series [3], the OATP2B1 substrate identification result was “substrates” and the “uptake in cells transfected with OATP2B1 versus WT cells” value is given as “doubled”. For the same compound, in series [4], the “V u,brain (AD)” value is listed as 1.50 ± 0.580 mL/g brain and the “V u,brain (WT)” value turned out to be 2.10 ± 0.650 mL/g brain.

In the case of `COCCOCCn1c2ccccc2c2cc(/C=C/c3cc[n+](CCO)c4ccccc34)ccc21` [SLOH, (E)-1-(2-hydroxyethyl)-4-(2-(9-(2-(2-metho-xyethoxy)-ethyl)-9H-carbazol-3-yl)vinyl) quinolin-1-ium chloride], the “Hepatocyte scaled Cl hep” value in series [1] came out at 1 ± 0.167 mL/min/kg. In addition, in series [2], the “uptake by OATP1A2 transfected HEK293 versus WT cells” value is on record as “no significant differences”. In series [3], the OATP2B1 substrate identification entry is given as “substrates” and the “uptake in cells transfected with OATP2B1 versus WT cells” value is recorded as “doubled”. In series [4], the “V u,brain (AD)” value is recorded as 1.20 ± 0.240 mL/g brain and the “V u,brain (WT)” value was 1.40 ± 0.400 mL/g brain.

The values above are taken from paper PMC5703966, “Systemic clearance and brain distribution of carbazole-based cyanine compounds as Alzheimer’s disease drug candidates” (Scientific Reports, 2017).
